Measurements reported in patent US8263606B2 (Xenon Pharmaceuticals Inc., priority 2008, dated 2012).

What was measured:
[1] = molecular target: CYP3A4 (Homo sapiens, UniProt P08684); assay: Cytochrome P450 (CYP450) Inhibition Assay, CYP3A4 (Vivid fluorescence, BOMCC substrate); settings: human, P450 Baculosomes (recombinant CYP3A4), probe BOMCC (Vivid substrate)
[2] = test system: sodium channel; assay: Guanidine influx assay (14C-guanidine radiotracer flux, in vitro); format: cell-based, human or rat; settings: guanidine influx assay using a known cell line that expresses a sodium channel
How it was run: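 Sodium channel block is measured as reduced 14C-guanidine uptake in cells stably expressing human or rat channels, stimulated with aconitine. Potency is given as IC50 from a four-parameter curve.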

Sequence of CYP3A4 (P08684 whole entry): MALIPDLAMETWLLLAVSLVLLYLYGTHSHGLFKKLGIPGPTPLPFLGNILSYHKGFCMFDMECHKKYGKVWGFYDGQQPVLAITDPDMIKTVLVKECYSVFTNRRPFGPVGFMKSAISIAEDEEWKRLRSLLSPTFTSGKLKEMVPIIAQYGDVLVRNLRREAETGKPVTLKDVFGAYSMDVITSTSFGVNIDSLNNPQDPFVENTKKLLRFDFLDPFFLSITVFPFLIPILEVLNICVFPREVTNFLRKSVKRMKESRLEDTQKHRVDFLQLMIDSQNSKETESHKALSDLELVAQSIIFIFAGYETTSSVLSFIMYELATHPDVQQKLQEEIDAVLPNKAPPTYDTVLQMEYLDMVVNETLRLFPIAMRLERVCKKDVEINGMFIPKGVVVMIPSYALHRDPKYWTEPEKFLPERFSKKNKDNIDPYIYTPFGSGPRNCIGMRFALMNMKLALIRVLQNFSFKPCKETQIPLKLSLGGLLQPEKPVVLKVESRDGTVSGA

Structure (SMILES)	melting point [°C]	inhibition at 10 µM [1] [%]	IC50 ([2]; activity level class) [nM]	IC50 [2] [nM]
O=C1N(Cc2nc(C(F)(F)F)cs2)c2ccccc2C12COc1cc3c(cc12)OCCO3 (stereo not drawn) [Example 5.23, 1′-{[4-(trifluoromethyl)-1,3-thiazol-2-yl]methyl}-2,3-dihydrospiro[furo[2,3-g][1,4]benzodioxine-8,3′-indol]-2′(1′H)-one]	169 to 170	> 50	1 to 100	–
O=C1N(Cc2ccccc2C(F)F)c2ccccc2C12COc1cc3c(cc12)OCCO3 (stereo not drawn) [Example 8.17]	191 to 193	< 50	1 to 100	–
N#Cc1ccc2c(c1)C1(COc3cc4c(cc31)OCCO4)C(=O)N2Cc1ccccn1 (stereo not drawn) [Example 2.50, 2′-oxo-1′-(pyridin-2-ylmethyl)-1′,2,2′,3-tetrahydrospiro[furo[2,3-g][1,4]benzodioxine-8,3′-indole]-5′-carbonitrile]	198 to 199	< 50	1 to 100	–
Cc1nc(-c2cccc(CN3C(=O)C4(COc5cc6c(cc54)OCCO6)c4ccccc43)c2)no1 (stereo not drawn) [Example 11.83, 1′-[3-(5-methyl-1,2,4-oxadiazol-3-yl)benzyl]-2,3-dihydrospiro[furo[2,3-g][1,4]benzodioxine-8,3′-indol]-2′(1′H)-one]	90 to 95	> 50	–	1 to 100
COc1cc2c(cc1F)OCC21C(=O)N(Cc2ccc(C(F)(F)F)o2)c2ccccc21 (stereo not drawn) [Example 4.83, 6-fluoro-5-methoxy-1′-{[5-(trifluoromethyl)furan-2-yl]methyl}spiro[1-benzofuran-3,3′-indol]-2′(1′H)-one]	132 to 134	> 50	1000 to 10000	–
Cc1cccc(C)c1NC(=O)CN1C(=O)C2(COc3cc4c(cc32)CCO4)c2ccccc21 (stereo not drawn) [Example 12.56, N-(2,6-dimethylphenyl)-2-(2′-oxo-5,6-dihydrospiro[benzo[1,2-b:5,4-b′]difuran-3,3′-indol]-1′(2′H)-yl)acetamide]	261 to 262	> 50	–	1000 to 10000
Cc1ccc(F)c2c1N(C[C@H]1CCCO1)C(=O)C21COc2cc3c(cc21)CCO3 (stereo partly drawn) [Example 8.3, 4′-fluoro-7′-methyl-1′-[(2R)-tetrahydrofuran-2-ylmethyl]-5,6-dihydrospiro[benzo[1,2-b:5,4-b′]difuran-3,3′-indol]-2′(1′H)-one]	175 to 176	> 50	1 to 100	–
CN(C)c1ccc(-c2cccc3c2C2(COc4cc5c(cc42)OCO5)C(=O)N3Cc2ccc(Cl)s2)cn1 (stereo not drawn) [Example 16.12, 1′-[(5-chloro-2-thienyl)methyl]-4′-[6-(dimethylamino)pyridin-3-yl]spiro[furo[2,3-f][1,3]benzodioxole-7,3′-indol]-2′(1′H)-one]	215 to 218	> 50	–	100 to 1000
Cc1nc(-c2ccc(CN3C(=O)C4(COc5cc6c(cc54)OCCO6)c4ccccc43)cc2)no1 (stereo not drawn) [Example 11.84, 1′-[4-(5-methyl-1,2,4-oxadiazol-3-yl)benzyl]-2,3-dihydrospiro[furo[2,3-g][1,4]benzodioxine-8,3′-indol]-2′(1′H)-one]	174 to 175	< 50	–	1 to 100
O=C1N(Cc2cnccn2)c2ccccc2C12COc1cc3c(cc12)CCO3 (stereo not drawn) [Example 9.7, 1′-(pyrazin-2-ylmethyl)-5,6-dihydrospiro[benzo[1,2-b:5,4-b′]difuran-3,3′-indol]-2′(1′H)-one]	143 to 144	< 50	1 to 100	–
Cc1nc(CN2C(=O)C3(COc4cc5c(cc43)OCO5)c3ccccc32)c(C(F)(F)F)o1 (stereo not drawn) [Example 1.9, 1′-{[2-methyl-5-(trifluoromethyl)-1,3-oxazol-4-yl]methyl}spiro[furo[2,3-f][1,3]benzodioxole-7,3′-indol]-2′(1′H)-one]	136 to 137	> 50	1 to 100	–
COc1cc2c(cc1C)C1(CO2)C(=O)N(C[C@H]2CCCO2)c2ccccc21 (stereo partly drawn) [Example 4.61, 6-methoxy-5-methyl-1′-[(2R)-tetrahydrofuran-2-ylmethyl]spiro[1-benzofuran-3,3′-indol]-2′(1′H)-one]	151 to 153	< 50	1000 to 10000	–
CN1CCOc2cc3c(cc21)OCC31C(=O)N(C[C@H]2CCCO2)c2ccccc21 (stereo partly drawn) [Example 2.30, 4-methyl-1′-[(2R)-tetrahydrofuran-2-ylmethyl]-3,4-dihydro-2H-spiro[furo[2,3-g][1,4]benzoxazine-8,3′-indol]-2′(1′H)-one]	138 to 140	> 50	1000 to 10000	–
CN1CCO[C@H](CN2C(=O)[C@@]3(COc4cc5c(cc43)OCCO5)c3ccccc32)C1 [Example 11.106, (8S)-1′-{[(2S)-4-methylmorpholin-2-yl]methyl}-2,3-dihydrospiro[furo[2,3-g][1,4]benzodioxine-8,3′-indol]-2′(1′H)-one]	85 to 90	< 50	–	1 to 100
O=C(O)c1cccc(CN2C(=O)C3(COc4cc5c(cc43)CCO5)c3ccccc32)c1 (stereo not drawn) [Example 11.12, 3-[(2′-oxo-5,6-dihydrospiro[benzo[1,2-b:5,4-b′]difuran-3,3′-indol]-1′(2′H)-yl)methyl]benzoic acid]	> 250	< 50	–	1000 to 10000
O=C1N(Cc2cnc(O)nc2)c2ccccc2C12COc1cc3c(cc12)OCCO3 (stereo not drawn) [Example 35.1, 1′-[(2-hydroxypyrimidin-5-yl)methyl]-2,3-dihydrospiro[furo[2,3-g][1,4]benzodioxine-8,3′-indol]-2′(1′H)-one]	> 250	< 50	–	1000 to 10000
CCNC(=O)c1ccc(CN2C(=O)C3(COc4cc5c(cc43)CCO5)c3ccccc32)cc1 (stereo not drawn) [Example 12.39, N-ethyl-4-[(2′-oxo-5,6-dihydrospiro[benzo[1,2-b:5,4-b′]difuran-3,3′-indol]-1′(2′H)-yl)methyl]benzamide]	190 to 191	> 50	–	100 to 1000
Cn1c(=O)oc2cc3c(cc21)OCC31C(=O)N(Cc2ccc(C(F)(F)F)o2)c2ccccc21 (stereo not drawn) [Example 5.8, 3-methyl-1′-{[5-(trifluoromethyl)furan-2-yl]methyl}spiro[furo[2,3-f][1,3]benzoxazole-7,3′-indole]-2,2′(1′H,3H)-dione]	198 to 199	> 50	1000 to 10000	–
O=C1N(Cc2cncc(F)c2)c2ccccc2[C@]12COc1cc3c(cc12)OCCO3 [Example 8.19, (8S)-1′-[(5-fluoropyridin-3-yl)methyl]-2,3-dihydrospiro[furo[2,3-g][1,4]benzodioxine-8,3′-indol]-2′(1′H)-one]	197 to 200	< 50	1 to 100	–
O=C1N(Cc2ccccn2)c2ccccc2C12COc1cc3c(cc12)OCCO3 (stereo not drawn) [Example 4.41, 1′-(pyridin-2-ylmethyl)-2,3-dihydrospiro[furo[2,3-g][1,4]benzodioxine-8,3′-indol]-2′(1′H)-one]	208 to 209	< 50	1 to 100	–
CN(C)c1ccc(-c2cccc3c2C2(COc4cc5c(cc42)CCO5)C(=O)N3Cc2ccc(C(F)(F)F)o2)cn1 (stereo not drawn) [Example 16.11, 4′-[6-(dimethylamino)pyridin-3-yl]-1′-{[5-(trifluoromethyl)furan-2-yl]methyl}-5,6-dihydrospiro[benzo[1,2-b:5,4-b′]difuran-3,3′-indol]-2′(1′H)-one]	223 to 225	> 50	–	100 to 1000
O=C1N(Cc2ccc3ncnn3c2)c2ccccc2C12COc1cc3c(cc12)OCCO3 (stereo not drawn) [Example 39, 1′-([1,2,4]triazolo[1,5-a]pyridin-6-ylmethyl)-2,3-dihydrospiro[furo[2,3-g][1,4]benzodioxine-8,3′-indol]-2′(1′H)-one]	207 to 209	> 50	–	1 to 100
Cc1cccc(NC(=O)c2ccccc2CN2C(=O)C3(COc4cc5c(cc43)CCO5)c3ccccc32)c1C (stereo not drawn) [Example 12.21, N-(2,3-dimethylphenyl)-2-[(2′-oxo-5,6-dihydrospiro[benzo[1,2-b:5,4-b′]difuran-3,3′-indol]-1′(2′H)-yl)methyl]benzamide]	> 230	> 50	–	1000 to 10000
O=C1N(Cn2nc3ccccc3n2)c2ccccc2C12COc1cc3c(cc12)CCO3 (stereo not drawn) [Example 9.13, 1′-(2H-benzotriazol-2-ylmethyl)-5,6-dihydrospiro[benzo[1,2-b:5,4-b′]difuran-3,3′-indol]-2′(1′H)-one]	102 to 105	> 50	1 to 100	–
O=C1N(Cc2ccccn2)c2ccccc2C12COc1c2ccc2c1OCCO2 (stereo not drawn) [Example 5.36, 1-(pyridin-2-ylmethyl)-2,3-dihydrospiro[furo[2,3-f][1,4]benzodioxine-7,3′-indol]-2′(1′H)-one]	205 to 206	< 50	100 to 1000	–
CCC(CC)CNC(=O)c1cccc(CN2C(=O)C3(COc4cc5c(cc43)CCO5)c3ccccc32)c1 (stereo not drawn) [Example 12.3, N-(2-ethylbutyl)-3-[(2′-oxo-5,6-dihydrospiro[benzo[1,2-b:5,4-b′]difuran-3,3′-indol]-1′(2′H)-yl)methyl]benzamide]	105 to 106	> 50	–	100 to 1000
O=C1N(Cc2nnc(-c3ccc(Cl)cc3)o2)c2ccccc2C12COc1cc3c(cc12)OCO3 (stereo not drawn) [Example 6.7, 1′-{[5-(4-chlorophenyl)-1,3,4-oxadiazol-2-yl]methyl}spiro[furo[2,3-f][1,3]benzodioxole-7,3′-indol]-2′(1′H)-one]	161 to 162	> 50	100 to 1000	–
